Literature values, collected in patent US20230000073A1, “A COMPOSITION FOR ACTIVATING PLANT'S NATURAL DEFENSE MECHANISMS TO EXTEND THE SHELF LIFE AND METHODS THEREOF” (GREENPOD LABS PRIVATE LIMITED, priority 2019, published 2023).
“Also recorded” adds a separate entry of the source. Read-outs that look alike come from different tables or passages of the source.

## O=C(O)c1ccccc1O [SA, 2-hydroxybenzoic acid]
Strawberry
  Reported results (effects of SA): Decay, Ripenings, weight loss reduction
Kiwifruit
  Reported results (effects of SA): Inhibition of ethylene production, ripening &; also recorded: decay control
Banana
  Reported results (effects of SA): Decrease in fruit softening pulp/peel ratio, reducing sugar content,
Sweet cherry
  Reported results (effects of SA): direct antifungal activity
Tomato
  Reported results (effects of SA): Development of red color, regulation of ACS genes expression
Orange
  Reported results (effects of SA): SOD, GR, APX & DHAR activity & ASA/DHASA
Apple
  Reported results (effects of SA): Decreased ethylene, LOX activity, MDA content, DI,
Apple; combined with microbial antagonist
  Reported results (effects of SA): Enchaned the biological efficacy of antagonist
Watermelon
  Reported results (effects of SA): Increase in GPX, APX, CAT, SOD & GR activity,
Fresh-cut Chestnut
  Reported results (effects of SA): Delayed discoloration, maintained edible quality
